Legend:
Na+/K+-ATPase (α1β1) = Na+/K+-ATPase (α1β1) (Sus scrofa, UniProt P05024); assay: biochemical
[1] = test system: plasma membrane Ca2+-ATPase (PMCA; isoform not resolved); format: cell-based

SMILES	IC50 (Na+/K+-ATPase (α1β1)) [nM]	% inhibition at 100 nM [1]
C[C@@H]1O[C@@H](O[C@H]2CC[C@@]3(C)[C@H](CC[C@@H]4[C@@H]3CC[C@]3(C)[C@@H](C5=CC(=O)OC5)CC[C@]43O)C2)[C@H](O)[C@H](O)[C@H]1O [compound 1, digitoxigenin-α-L-rhamno-pyranoside]	12 ± 1	–
C[C@@H]1O[C@@H](O[C@H]2CC[C@@]3(C)[C@H](CC[C@@H]4[C@@H]3CC[C@]3(C)[C@@H](C5=CC(=O)OC5)CC[C@]43O)C2)CC[C@H]1O [compound 2, digitoxigenin-α-L-amiceto-pyranoside]	41 ± 3	~ 25% inhibition at 100

From publication PMC8671332 (Journal of cellular biochemistry, 2021)
